According to PubChem BioAssay (NCI):
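GI50 marks 50% less growth. TGI marks complete inhibition of growth.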

Legend:
Assay in all cases: growth of human tumour cells (NCI), 384-well format
[1] = test system: SK-MEL-2 melanoma
[2] = test system: CCRF-CEM leukemia
[3] = test system: HS 578T breast
[4] = test system: HOP-62 NSCLC
[5] = test system: UACC-62 melanoma
[6] = test system: OVCAR-5 ovarian
[7] = test system: NCI-H226 lung
[8] = test system: NCI/ADR-RES ovarian
[9] = test system: M14 melanoma
[10] = test system: SNB-75 CNS
[11] = test system: NCI-H23 lung
[12] = test system: SF-539 CNS
[13] = test system: SR leukemia
[14] = test system: PC-3 prostate
[15] = test system: COLO 205 colon
[16] = test system: HCT-116 colon
[17] = test system: ACHN renal
[18] = test system: NCI-H522 lung
[19] = test system: SF-295 CNS
[20] = test system: A549 NSCLC
[21] = test system: A498 renal
[22] = test system: K-562 leukemia
[23] = test system: DU-145 prostate
[24] = test system: HOP-92 NSCLC
[25] = test system: SK-MEL-28 melanoma
[26] = test system: UO-31 renal
[27] = test system: MALME-3M melanoma
[28] = test system: NCI-H322M lung
[29] = test system: RXF 393 renal
[30] = test system: IGROV1 ovarian
[31] = test system: BT-549 breast
[32] = test system: MDA-MB-468 breast
[33] = test system: RPMI-8226 leukemia
[34] = test system: OVCAR-3 ovarian
[35] = test system: MCF7 breast
[36] = test system: MOLT-4 leukemia
[37] = test system: UACC-257 melanoma
[38] = test system: HT29 colon
[39] = test system: OVCAR-4 ovarian
[40] = test system: KM12 colon
[41] = test system: T-47D breast
[42] = test system: U251 glioblastoma
[43] = test system: 786-0 renal
[44] = test system: SNB-19 CNS
[45] = test system: SN12C renal
[46] = test system: HCT-15 colon
[47] = test system: SK-MEL-5 melanoma
[48] = test system: LOX IMVI melanoma
[49] = test system: SW-620 colon
[50] = test system: EKVX NSCLC
[51] = test system: HL-60(TB) leukemia
[52] = test system: SF-268 CNS
[53] = test system: TK-10 renal
[54] = test system: HCC-2998 colon
[55] = test system: MDA-MB-231 breast
[56] = test system: CAKI-1 renal
[57] = test system: SK-OV-3 ovarian
[58] = test system: NCI-H460 NSCLC
[59] = test system: MDA-MB-435 melanoma
[60] = test system: OVCAR-8 ovarian

## COc1cc2c(cc1F)C(c1ccccc1Cl)=Nc1c(n[nH]c1C)N2
[1]
  GI50: 459 nM
  TGI: 4310 nM
[2]
  GI50: 145 nM
  TGI: 288 nM
[3]
  GI50: 190 nM
  TGI: 464 nM
[4]
  GI50: 521 nM
  TGI: 14100 nM
[5]
  GI50: 334 nM
  TGI: 12000 nM
[6]
  GI50: 5320 nM
  TGI: 19800 nM
[7]
  GI50: 688 nM
  TGI: 2660 nM
[8]
  GI50: 304 nM
  TGI: 16000 nM
[9]
  GI50: 339 nM
  TGI: 15900 nM
[10]
  GI50: 320 nM
  TGI: 1390 nM
[11]
  GI50: 690 nM
  TGI: 16500 nM
[12]
  GI50: 351 nM
  TGI: 1500 nM
[13]
  GI50: 103 nM
  TGI: 238 nM
[14]
  GI50: 709 nM
  TGI: 21100 nM
[15]
  GI50: 367 nM
  TGI: 12100 nM
[16]
  GI50: 393 nM
  TGI: 15100 nM
[17]
  GI50: 1350 nM
  TGI: 13300 nM
[18]
  GI50: 202 nM
  TGI: 506 nM
[19]
  GI50: 452 nM
  TGI: 16200 nM
[20]
  GI50: 599 nM
  TGI: 15600 nM
[21]
  GI50: 498 nM
  TGI: 17200 nM
[22]
  GI50: 252 nM
  TGI: 13600 nM
[23]
  GI50: 2020 nM
  TGI: 13000 nM
[24]
  GI50: 960 nM
  TGI: 8170 nM
[25]
  GI50: 778 nM
  TGI: 18600 nM
[26]
  GI50: 781 nM
  TGI: 2080 nM
[27]
  GI50: 12600 nM
  TGI: 25200 nM
[28]
  GI50: 4440 nM
  TGI: 19900 nM
[29]
  GI50: 207 nM
  TGI: 1230 nM
[30]
  GI50: 679 nM
  TGI: 9690 nM
[31]
  GI50: 231 nM
  TGI: 1080 nM
[32]
  GI50: 180 nM
  TGI: 387 nM
[33]
  GI50: 253 nM
  TGI: 7320 nM
[34]
  GI50: 225 nM
  TGI: 823 nM
[35]
  GI50: 502 nM
  TGI: 19800 nM
[36]
  GI50: 146 nM
  TGI: 283 nM
[37]
  GI50: 11400 nM
  TGI: 23500 nM
[38]
  GI50: 313 nM
  TGI: 12500 nM
[39]
  GI50: 2260 nM
  TGI: 19800 nM
[40]
  GI50: 274 nM
  TGI: 12100 nM
[41]
  GI50: 794 nM
  TGI: 17700 nM
[42]
  GI50: 453 nM
  TGI: 12300 nM
[43]
  GI50: 508 nM
  TGI: 11900 nM
[44]
  GI50: 726 nM
  TGI: 15100 nM
[45]
  GI50: 632 nM
  TGI: 14200 nM
[46]
  GI50: 304 nM
  TGI: 19500 nM
[47]
  GI50: 236 nM
  TGI: 12000 nM
[48]
  GI50: 528 nM
  TGI: 8780 nM
[49]
  GI50: 336 nM
  TGI: 11100 nM
[50]
  GI50: 597 nM
  TGI: 13800 nM
[51]
  GI50: 166 nM
  TGI: 306 nM
[52]
  GI50: 370 nM
  TGI: 1770 nM
[53]
  GI50: 860 nM
  TGI: 10300 nM
[54]
  GI50: 108 nM
  TGI: 16700 nM
[55]
  GI50: 650 nM
  TGI: 16800 nM
[56]
  GI50: 512 nM
  TGI: 4160 nM
[57]
  GI50: 757 nM
  TGI: 16400 nM

## N#CCCNc1nonc1-c1nc2ccccc2n1CC(=O)c1ccc(NC(=O)[C@@H](N)CCCCN)cc1
[58]
  GI50: 22.1 nM
  TGI: 47.3 nM
[2]
  GI50: 18.3 nM
  TGI: 33.1 nM
[3]
  GI50: 17.4 nM
  TGI: 36.9 nM
[4]
  GI50: 38.8 nM
  TGI: 1020 nM
[5]
  GI50: 31 nM
  TGI: 344 nM
[6]
  GI50: 120 nM
  TGI: > 100000 nM
[7]
  GI50: 90.3 nM
  TGI: 41900 nM
[8]
  GI50: 18.2 nM
  TGI: 35.1 nM
[9]
  GI50: 19.9 nM
  TGI: 46.5 nM
[10]
  GI50: 38.7 nM
  TGI: 66600 nM
[11]
  GI50: 21.8 nM
  TGI: 52.6 nM
[12]
  GI50: 20 nM
  TGI: 45.7 nM
[14]
  GI50: 38.9 nM
  TGI: 948 nM
[15]
  GI50: 27.8 nM
  TGI: 78.3 nM
[16]
  GI50: 33.3 nM
  TGI: 192 nM
[17]
  GI50: 63.6 nM
  TGI: > 100000 nM
[18]
  GI50: 17.7 nM
  TGI: 37 nM
[19]
  GI50: 26.3 nM
  TGI: 71.4 nM
[20]
  GI50: 36.9 nM
  TGI: > 100000 nM
[21]
  GI50: 30.6 nM
  TGI: > 100000 nM
[22]
  GI50: 18.7 nM
  TGI: 38.8 nM
[23]
  GI50: 37.5 nM
  TGI: 640 nM
[24]
  GI50: 51.5 nM
  TGI: 884 nM
[25]
  GI50: 78.1 nM
  TGI: 46300 nM
[26]
  GI50: 60.1 nM
  TGI: 11300 nM
[27]
  GI50: 34.8 nM
  TGI: 163 nM
[28]
  GI50: 73 nM
  TGI: > 100000 nM
[29]
  GI50: 20.8 nM
  TGI: 53 nM
[59]
  GI50: 19.4 nM
  TGI: 38.3 nM
[30]
  GI50: 43.5 nM
  TGI: > 100000 nM
[31]
  GI50: 22.2 nM
  TGI: 54 nM
[32]
  GI50: 19.9 nM
  TGI: 46.1 nM
[33]
  GI50: 19.2 nM
  TGI: 35.4 nM
[34]
  GI50: 19.9 nM
  TGI: 45.7 nM
[35]
  GI50: 39.4 nM
  TGI: 3270 nM
[36]
  GI50: 16.8 nM
  TGI: 31.1 nM
[37]
  GI50: 59.1 nM
  TGI: 22600 nM
[39]
  GI50: 86.1 nM
  TGI: 66300 nM
[42]
  GI50: 32.8 nM
  TGI: 148 nM
[43]
  GI50: 36.3 nM
  TGI: 422 nM
[60]
  GI50: 32 nM
  TGI: 117 nM
[44]
  GI50: 37 nM
  TGI: > 100000 nM
[45]
  GI50: 45.2 nM
  TGI: 2170 nM
[46]
  GI50: 30 nM
  TGI: 103 nM
[47]
  GI50: 20.9 nM
  TGI: 57.1 nM
[48]
  GI50: 46 nM
  TGI: 407 nM
[49]
  GI50: 42.4 nM
  TGI: 88400 nM
[50]
  GI50: 54.5 nM
  TGI: > 100000 nM
[51]
  GI50: 20.7 nM
  TGI: 35.8 nM
[52]
  GI50: 13.6 nM
  TGI: 47.4 nM
[53]
  GI50: 83.4 nM
  TGI: 93000 nM
[54]
  GI50: 24.9 nM
  TGI: 74.1 nM
[55]
  GI50: 135 nM
  TGI: 78600 nM
[56]
  GI50: 41.1 nM
  TGI: > 100000 nM
[57]
  GI50: 39.9 nM
  TGI: 16200 nM
